Reference: PubChem BioAssay (NCI)
Structures can show the parent of a compound that is named as a salt.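 Each compound was tested at five concentrations against cells in 96-well plates for 48 hours. GI50 marks 50% less growth. Definition used: TGI = concentration required for complete inhibition of growth.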 Where a SMILES comes first, the peptide text is derived from it. The star is where a group is joined. Tfa = O=C(C(F)(F)F)*

Experiments:
Experiment in all cases: NCI-60 cell line screen, 48 h
HOP-62 NSCLC = test system: HOP-62 NSCLC
SNB-19 CNS = test system: SNB-19 CNS
LOX IMVI melanoma = test system: LOX IMVI melanoma
KM12 colon = test system: KM12 colon
ACHN renal = test system: ACHN renal
SF-539 CNS = test system: SF-539 CNS
NCI-H226 lung = test system: NCI-H226 lung
SNB-75 CNS = test system: SNB-75 CNS
SK-MEL-28 melanoma = test system: SK-MEL-28 melanoma
MALME-3M melanoma = test system: MALME-3M melanoma

SMILES	TGI (HOP-62 NSCLC) [µM]	TGI (SNB-19 CNS) [µM]	TGI (LOX IMVI melanoma) [µM]	TGI (KM12 colon) [µM]	TGI (ACHN renal) [µM]	TGI (SF-539 CNS) [µM]	TGI (NCI-H226 lung) [µM]	TGI (SNB-75 CNS) [µM]	TGI (SK-MEL-28 melanoma) [µM]	TGI (MALME-3M melanoma) [µM]	GI50 (HOP-62 NSCLC) [µM]	GI50 (SNB-19 CNS) [µM]	GI50 (MALME-3M melanoma) [µM]	GI50 (KM12 colon) [µM]	GI50 (SNB-75 CNS) [µM]	GI50 (SK-MEL-28 melanoma) [µM]	GI50 (LOX IMVI melanoma) [µM]	GI50 (ACHN renal) [µM]	GI50 (SF-539 CNS) [µM]	GI50 (NCI-H226 lung) [µM]
COc1ccc(C2=CC(c3ccccc3)n3nnnc3N2)cc1 (stereo not drawn)	> 100	> 100	> 100	> 100	> 100	> 100	> 100													
CCc1ccc(N=Cc2cc(OC)c(OC)c(OC)c2)cc1	> 100	> 100	> 100	> 100	> 100	> 100		> 100	> 100	> 100										
COc1ccccc1/C=C/C1=NN(c2cccc(S(=O)(=O)O)c2)C2(C1)SCC(=O)N2c1nc2ccccc2s1 (stereo not drawn)		> 100	> 100	> 100	> 100	> 100	> 100	> 100	> 100	> 100										
CCOC(=O)C1(C(N)=O)C(=O)c2ccncc2C1=O (stereo not drawn)		> 100	> 100	> 100	> 100	> 100	> 100	> 100	> 100	> 100										
CC(=N\N)/C(C)=N/N=C(C)/C(C)=N/N=C(C)/C(C)=N/N=C(C)/C(C)=N/N	> 100	> 100	> 100	> 100		> 100	> 100	> 100	> 100	> 100										
COc1cc2c[n+](C)c3c4cc(OC)c(OC)cc4c(OC)cc3c2cc1OC	> 100	> 100	> 76.5	> 67.1	> 100	> 100		> 95.1	> 81.9	9.44										
COc1cc(C=O)ccc1Oc1nnnn1-c1ccccc1	> 100	> 100	> 100	> 100			56.7	> 100	> 100	> 100										
C=CCOC(=O)N1[C@H]2C#C/C=C\C#C[C@]3(O)C(=O)C[C@H](C)[C@]24O[C@]43C2=CC(=O)C=CC21OC (stereo partly drawn)	> 100	> 100		67.7	63.6	45.8	> 100	82.5	> 100	> 100										
NC(=O)c1nnc2ccc(F)cc2c1N	> 100	> 100	> 100	> 100	> 100	> 100	73.5	> 100		> 100										
Cc1c2c(c(C)n1-c1ccccc1)C(=O)N(CCCCN1CCN(c3ccccc3)CC1)C2=O	36.1	> 100	23.5	> 100	> 100	26.5	40.3	> 100		20.9										
CCOC(=O)c1ccc(Nc2cnc3cc(C(F)(F)F)ccc3n2)cc1	> 100		> 100	> 100	> 100	> 100	> 100	> 100	> 100	> 100										
CC(=O)OC1C(C)OC(Oc2c(C)c3c4c(c2O)[C@@H](C)CC[C@@H]4[C@@H](C)C[C@H]3C=C(C)C)C(O)C1O (stereo partly drawn)	5.3	> 100		3.66						4.19	2.26	3.41	1.82	1.87						
CC(C)(C)c1cc(CC2C(=O)c3ccccc3C2=O)cc(C(C)(C)C)c1O	9.08	12	16.2	19.1	> 100	16.7														
CCCCCC(C)(C)CCC(=O)OC1OC(COC2OC(COC3OC(CO)C(O)C(O)C3O)C(O)C(O)C2O)C(O)C(O)C1O (stereo not drawn)	> 100	> 100	> 100	> 100	> 100	> 100	> 100			> 100										
CCOC(=O)c1c2c3c(cccc3[nH]c1=O)Sc1ncccc1-2	> 100	> 100	> 100		> 100	> 100	66.5	> 100	> 100	> 100										
CC(=O)OC12/C(=N/O)CCCCCC1c1ccccc12 (stereo not drawn)	> 100	> 100	> 100	> 100	> 100		> 100	> 100	> 100	> 100										
COc1ccc2nc3cc(Cl)ccc3c(NCCCN(Cc3cc(OC)c(OC)c(OC)c3)Cc3cc(OC)c(OC)c(OC)c3)c2c1	24.4	35.8		28.3	27.2	10.5	34.5		33.2	44.1										
NNC(=O)CSc1nc2ccc(I)cc2c(=O)n1Cc1ccccc1	43.9	54.8	> 100	58.7	40.2	52	41.9	50.4	80.5											
Fc1ccc2[nH]cc(-c3nc(-c4c[nH]c5ncccc45)cs3)c2c1				> 100				> 100	> 100					4.65	1.58	> 100				
Cc1c(NC(=S)NN)c(=O)n(-c2ccccc2)n1C	> 100	> 100	> 100	> 100		> 100	> 100	> 100	> 100	> 100										
COc1cc(C2SCC(=O)N2c2cc(Cl)c(Cl)cc2Cl)cc(OC)c1OC (stereo not drawn)		> 100	> 100	> 100	> 100	> 100	> 100		> 100											

SMILES	TGI (HOP-62 NSCLC) [µM]	TGI (SNB-19 CNS) [µM]	TGI (LOX IMVI melanoma) [µM]	TGI (KM12 colon) [µM]	TGI (ACHN renal) [µM]	TGI (SF-539 CNS) [µM]	TGI (NCI-H226 lung) [µM]	TGI (SNB-75 CNS) [µM]	TGI (SK-MEL-28 melanoma) [µM]	TGI (MALME-3M melanoma) [µM]	GI50 (HOP-62 NSCLC) [µM]	GI50 (SNB-19 CNS) [µM]	GI50 (MALME-3M melanoma) [µM]	GI50 (KM12 colon) [µM]	GI50 (SNB-75 CNS) [µM]	GI50 (SK-MEL-28 melanoma) [µM]	GI50 (LOX IMVI melanoma) [µM]	GI50 (ACHN renal) [µM]	GI50 (SF-539 CNS) [µM]	GI50 (NCI-H226 lung) [µM]
OCC1OC(n2nc(-c3ccccc3)nc2-c2cnccn2)C(O)C(O)C1O (stereo not drawn)	> 100	> 100	> 100	> 100		> 100		> 100	> 100											
C/C=C/[C@H]1O[C@@](O)([C@@H](C)[C@H](O)[C@H](C)[C@H]2OC(=O)/C(OC)=C/C(C)=C/[C@@H](C)[C@@H](O)[C@@H](CC)[C@@H](O)[C@H](C)C/C(C)=C/C=C/[C@@H]2OC)C[C@H](OC2CC(O)C(O)C(C)O2)[C@@H]1C (stereo partly drawn)	2.7	15.7		12	12.8		11.7	46	14.7	0.907										
Nc1ccc(S(=O)(=O)Nc2nnc(S(N)(=O)=O)s2)cc1		> 100	> 100	> 100	> 100	> 100	> 100	> 100		> 100										
CCCCCCCC1C(C)c2c([nH]c3ccccc23)C2C(=O)N(c3ccc(OC)cc3)C(=O)C21 (stereo not drawn)	> 7.78	9.92		> 10	5.74	> 7.09	> 8.21	3.91	> 10	> 10										
NC(Cc1ccc(S(=O)(=O)O)cc1)C(=O)NC(CCCCNC(=O)NCCCCC(NC(=O)C(N)Cc1ccc(S(=O)(=O)O)cc1)C(=O)NC(Cc1ccc(S(=O)(=O)O)cc1)C(=O)O)C(=O)NC(Cc1ccc(S(=O)(=O)O)cc1)C(=O)O (stereo not drawn)	> 100		> 100	> 100	> 100	> 100	> 100	> 100	> 100	> 100										
Cc1cc(N(CCC#N)CCC#N)ccc1/C(N=Nc1ccc(Cl)cc1)=N\NC(=O)c1cc(Cl)ccc1O	56.6	75.4		> 100	> 100	73.6	85.1	84.4		> 100										
Oc1ccc(-c2csc(NNC3=NC/C(=C/c4ccc5c(c4)OCO5)S3)n2)cc1O	> 100	> 100	> 100	> 100	> 100	> 100	> 100	38.9	> 100											
COc1ccc(/C=C2\CCC(C)C3=C(c4ccc(OC)c(OC)c4)C(C#N)=C(N)OC32)cc1OC (stereo not drawn)		> 100	10.9	66.5	> 100		9.83	8.63	31.7	32.2										
CCC1=NC(N/N=C/c2ccco2)=N/C1=C\c1ccccc1O	> 100	> 100	> 100	> 100	> 100		> 100		> 100	98.9										
C=CCn1c(=O)c2ccccc2[n+]2c(C)c(C(=O)OCC)sc12	> 100	> 100	> 100	> 100	> 100	> 100	> 100		> 100											
O=C(O)CC(NC(=O)C(F)(F)F)C(=O)NC(Cc1ccc(O)cc1)C(=O)O (stereo not drawn) (Tfa-Asp-Tyr-OH; configuration not given here)	> 50	> 50		> 50	> 50	> 50	> 50	> 50	> 50	> 50										
N#CN=C(N)c1sc2nc3c(c(-c4ccc(Br)cc4)c2c1N)CCCC3		> 100	41.2	59.7	57	> 100	42		> 100											
CCOC(=O)CN1C(=O)c2c(c(C)n(-c3ccccc3)c2C)C1=O	> 100	> 100		> 100	> 100	> 100	> 100	> 100	> 100	> 100										
COC(=O)c1c2c(cc3c1CC1(Cc4cc5c(c(C=O)c4C1)CCCC5)C3)CCCC2 (stereo not drawn)	> 100		> 100		> 100	> 100	> 100			> 100										
Cc1ccccc1C(=O)c1c(O)c2c(c(O)c1Br)CCCC2	> 100	54.7		30.9	31.9	33.4	58.4	34.8		24.7										
O=S(=O)(O)c1c(Cl)cc(O)c2ncccc12	> 100	> 100	> 100	> 100	> 100	> 100	> 100	> 100	> 100											
CC(=O)[C@@H]1[C@@H](OC(=O)CCC(C)COC2OC(CO)C(O)C(O)C2O)C[C@H]2[C@@H]3CC=C4C[C@@H](OC5OC(CO)C(OC6OC(C)C(O)C(O)C6O)C(O)C5OC5OC(C)C(O)C(O)C5O)CC[C@]4(C)[C@H]3CC[C@]12C (stereo partly drawn)	> 100	> 100	> 100	> 100	> 100			> 100	> 100	> 100										
Cc1ccc2c3c1O[C@H]1c4[nH]c5ccccc5c4C[C@@]4(O)[C@@H](C2)N(C)CC[C@]314		34.3	29.6	33.8	29.5	31.9	23.1			29.3										
CC[C@@]1(N(C)C)C(=O)OCc2c1cc1n(c2=O)Cc2cc3ccccc3nc2-1	36.2	> 100	33.5	> 100	42.2		90.1	34.5	> 100	55.3										
CCS(=O)(=O)N1CCC(C(C)n2c(C)c(C(=O)NCc3c(OC)cc(C)[nH]c3=O)c3ccccc32)CC1 (stereo not drawn)	> 100		> 100	> 100	> 100	> 100	> 100	> 100	> 100		> 100			> 100	36.3	> 100	> 100	> 100	> 100	> 100
O=C(Nc1cccc(-n2ccc3c(NC(=O)c4ccccc4)nccc32)c1)c1ccc(N2CCOCC2)c(C(F)(F)F)c1	> 94.7	> 100	> 100	1.36	> 63.5	3.42	> 92.9	25.9	> 100		0.0536	0.058		0.0364	0.023	0.0436	0.0427	0.0853	0.0358	0.0827
